Source: US20110224079A1, “SPIROHETEROCYCLIC N-OXYAMIDES AS PESTICIDES” (SYNGENTA CROP PROTECTION LLC, priority 2008, published 2011)

Columns and labels:
[1] = system: Myzus persicae (green peach aphid); experiment: Example B2: activity against Myzus persicae, pea seedling roots in test solution (systemic/feeding, curative); details: 144 h, read-out: activity (mortality)
[2] = system: Tetranychus urticae (two-spotted spider mite); experiment: Example B4: activity against Tetranychus urticae, sprayed bean leaf discs (feeding/residual contact, preventive); details: foliar, 192 h, read-out: activity (egg, larval and adult mortality)
[3] = system: Myzus persicae (green peach aphid); experiment: Example B1: activity against Myzus persicae, sprayed sunflower leaf discs (feeding/residual contact, preventive); details: foliar, 144 h, read-out: activity (mortality)
[4] = system: Myzus persicae (green peach aphid); experiment: Example B17: activity against Myzus persicae on sprayed pepper plants (feeding/residual contact); assay type: in vivo; details: 144 h, infested pepper plants sprayed, 6 days

| Compound | mortality at 400 ppm [1] [%] | mortality at 400 ppm [2] [%] | mortality at 400 ppm [3] [%] | mortality at 200 ppm [4] [%] |
| --- | --- | --- | --- | --- |
| CCOC(=O)OC1=C(c2c(C)cc(C)cc2C)C(=O)N(OC(=O)C2CC2)C12CCN(OC)CC2 [P1.16] | > 80 | > 80 | – | – |
| CCOC(=O)OC1=C(c2cc(Br)ccc2C)C(=O)N(OCOC)C12CCN(OC)CC2 [P1.21] | – | > 80 | – | – |
| CCOC(=O)OC1=C(c2cc(-c3ccc(Cl)cc3)ccc2C)C(=O)N(OCOC)C12CCN(OC)CC2 [P1.22] | – | > 80 | > 80 | – |
| C#CCON1C(=O)C(c2c(C)cc(C)cc2C)=C(OC(=O)OCC)C12CCN(OC)CC2 [P1.29] | > 80 | > 80 | > 80 | – |
| CCOC(=O)OC1=C(c2c(Cl)ccc(C)c2F)C(=O)N(OC2CCCO2)C12CCN(OC)CC2 (centres unmarked) [P1.43] | > 80 | > 80 | – | – |
| CCOC(=O)OC1=C(c2c(C)cc(C)cc2C)C(=O)N(OCCCOC)C12CCN(OC)CC2 [P1.44] | > 80 | > 80 | > 80 | ≥ 80 |
| CCOC(=O)OC1=C(c2cc(C)c(C)cc2C)C(=O)N(OC2CCCO2)C12CCN(OC)CC2 (centres unmarked) [P1.54] | – | > 80 | > 80 | – |
| CCOC(=O)OC1=C(c2cc(C)c(C)cc2C)C(=O)N(OCOC)C12CCN(OC)CC2 [P1.56] | > 80 | > 80 | > 80 | ≥ 80 |
| CCOC(=O)OC1=C(c2c(C)cc(C)cc2Br)C(=O)N(OC2CCCO2)C12CCN(OC)CC2 (centres unmarked) [P1.69] | > 80 | > 80 | > 80 | ≥ 80 |
| CCOC(=O)OC1=C(c2c(C)cccc2C)C(=O)N(OCCOC)C12CCN(OC)CC2 [P1.73] | > 80 | – | > 80 | ≥ 80 |
| CCOC(=O)OC1=C(c2c(C)cc(C)cc2C)C(=O)N(OC2CCOCC2)C12CCN(OC)CC2 [P1.76] | > 80 | > 80 | – | ≥ 80 |
| CCOC(=O)OC1=C(c2c(C)cc(C)cc2C)C(=O)N(OCc2ccoc2)C12CCN(OC)CC2 [P1.77] | > 80 | > 80 | – | ≥ 80 |
| CCOC(=O)OC1=C(c2c(C)cc(C)cc2C)C(=O)N(OCC2CCSCC2)C12CCN(OC)CC2 [P1.80] | – | > 80 | – | – |
| CCOC(=O)OC1=C(c2c(C)cc(C)cc2C)C(=O)N(OCC2CCCC2)C12CCN(OC)CC2 [P1.83] | > 80 | > 80 | – | ≥ 80 |
| CCOC(=O)OC1=C(c2c(C)cc(C)cc2C)C(=O)N(OCC2(CC)COC2)C12CCN(OC)CC2 [P1.84] | > 80 | > 80 | – | – |
| CCOC(=O)OC1=C(c2cc(Br)c(C)cc2C)C(=O)N(OCOC)C12CCN(OC)CC2 [P1.87] | – | > 80 | – | – |
| CCOC(=O)OC1=C(c2c(C)cc(Br)cc2C)C(=O)N(OCCOC)C12CCN(OC)CC2 [P1.89] | > 80 | – | > 80 | ≥ 80 |
| CCOC(=O)OC1=C(c2c(C)cc(C)cc2C)C(=O)N(OC2CCN(OC)CC2)C12CCN(OC)CC2 [P1.104] | > 80 | > 80 | – | – |
| CCOC(=O)OC1=C(c2c(C)cc(C)cc2C)C(=O)N(OCC2CCCCC2)C12CCN(OC)CC2 [P1.105] | – | > 80 | – | – |
| CCOC(=O)OC1=C(c2c(C)cc(C)cc2C)C(=O)N(OCC2CCC2)C12CCN(OC)CC2 [P1.106] | > 80 | > 80 | > 80 | ≥ 80 |
| CCOC(=O)OC1=C(c2c(C)cc(C)cc2C)C(=O)N(OCC2CCCOC2)C12CCN(OC)CC2 (centres unmarked) [P1.109] | > 80 | > 80 | > 80 | – |

| Compound | mortality at 400 ppm [1] [%] | mortality at 400 ppm [2] [%] | mortality at 400 ppm [3] [%] | mortality at 200 ppm [4] [%] |
| --- | --- | --- | --- | --- |
| COCON1C(=O)C(c2cc(-c3ccc(Cl)cc3)ccc2C)=C(O)C12CCN(OC)CC2 [P2.17] | – | > 80 | > 80 | – |
| CON1CCC2(CC1)C(O)=C(c1c(C)cc(C)cc1C)C(=O)N2OC1CCCCC1 [P2.26, 1-Cyclohexyloxy-4-hydroxy-8-methoxy-3-(2,4,6-trimethyl-phenyl)-1,8-diaza-spiro[4.5]dec-3-en-2-one] | – | > 80 | – | – |
| CON1CCC2(CC1)C(O)=C(c1cc(C)c(Cl)cc1C)C(=O)N2OC [P2.31] | – | > 80 | > 80 | – |
| CON1CCC2(CC1)C(O)=C(c1ccc(C)cc1C)C(=O)N2OC1CCCO1 (centres unmarked) [P2.33] | > 80 | – | > 80 | ≥ 80 |
| COCCON1C(=O)C(c2c(C)cc(C)cc2Cl)=C(O)C12CCN(OC)CC2 [P2.35] | > 80 | > 80 | > 80 | – |
| CON1CCC2(CC1)C(O)=C(c1c(C)ccc(Cl)c1C)C(=O)N2OC [P2.40] | > 80 | – | > 80 | ≥ 80 |
| CON1CCC2(CC1)C(O)=C(c1c(Cl)ccc(C)c1F)C(=O)N2OC1CCCO1 (centres unmarked) [P2.45] | – | > 80 | – | – |
| CON1CCC2(CC1)C(O)=C(c1c(Cl)ccc(C)c1F)C(=O)N2OC [P2.48] | > 80 | > 80 | – | – |
| CON1CCC2(CC1)C(O)=C(c1c(F)ccc(C)c1Cl)C(=O)N2OC [P2.58] | > 80 | > 80 | – | – |
| CON1CCC2(CC1)C(O)=C(c1c(C)cc(C)cc1C)C(=O)N2OC1CCCCO1 (centres unmarked) [P2.65] | > 80 | > 80 | > 80 | ≥ 80 |
| CON1CCC2(CC1)C(O)=C(c1c(C)cc(C)cc1C)C(=O)N2OC1COC1 [P2.66] | > 80 | – | > 80 | ≥ 80 |
| CON1CCC2(CC1)C(O)=C(c1c(C)cc(C)cc1Br)C(=O)N2OC1CCCO1 (centres unmarked) [P2.69] | > 80 | > 80 | > 80 | ≥ 80 |
| COCCON1C(=O)C(c2c(C)ccc(Cl)c2C)=C(O)C12CCN(OC)CC2 [P2.70] | > 80 | – | > 80 | ≥ 80 |
| CON1CCC2(CC1)C(O)=C(c1cc(Br)c(C)cc1C)C(=O)N2OC1CCCO1 (centres unmarked) [P2.76] | – | > 80 | – | – |
| CON1CCC2(CC1)C(O)=C(c1c(C)cccc1C)C(=O)N2OC [P2.78] | > 80 | – | > 80 | ≥ 80 |
| CON1CCC2(CC1)C(O)=C(c1c(C)cc(Br)cc1C)C(=O)N2OC [P2.79] | > 80 | > 80 | – | ≥ 80 |
| CON1CCC2(CC1)C(O)=C(c1c(C)cc(C)cc1C)C(=O)N2OCC1CCCC1 [P2.85] | > 80 | > 80 | > 80 | ≥ 80 |
| CCC1(CON2C(=O)C(c3c(C)cc(C)cc3C)=C(O)C23CCN(OC)CC3)COC1 [P2.86] | – | > 80 | > 80 | ≥ 80 |
| CON1CCC2(CC1)C(O)=C(c1c(C)cc(C)cc1Cl)C(=O)N2OC1CCCO1 (centres unmarked) [P2.94] | > 80 | > 80 | > 80 | ≥ 80 |
| CON1CCC2(CC1)C(O)=C(c1c(C)cc(C)cc1C)C(=O)N2OCC1CCCOC1 (centres unmarked) [P2.100] | > 80 | > 80 | > 80 | – |
